Measured values from patent US10647713B2 (Nimbus Lakshmi, Inc., priority 2016, dated 2020).

Target: human TYK2 (JH2domain-pseudokinase) (Homo sapiens (Human), UniProt P29597)
Assay: TYK2 JH2 Domain Binding Assay (KINOMEscan, DiscoveRx)
Settings: 11-point dilution, duplicate
Procedure: Binding constants for compounds of the present invention against the JH2 domain were determined by the following protocol for a KINOMEscan® assay (DiscoveRx). A fusion protein of a partial length construct of human TYK2 (JH2domain-pseudokinase) (amino acids G556 to D888 based on reference sequence NP_003322.3) and the DNA binding domain of NFkB was expressed in transiently transfected HEK293 cells. From these HEK 293 cells, extracts were prepared in M-PER extraction buffer (Pierce) in the presence of Protease Inhibitor Cocktail Complete (Roche) and Phosphatase Inhibitor Cocktail Set II (Merck) per manufacturers' instructions. The TYK2 (JH2domain-pseudokinase) fusion protein was labeled with a chimeric double-stranded DNA tag containing the NFkB binding site (5′-GGGAATTCCC-3′) fused to an amplicon for qPCR readout, which was added directly to the expression extract (the final concentration of DNA-tag in the binding reaction is 0.1 nM).
Streptavidin-coated magnetic beads (Dynal M280) were treated with a biotinylated small molecule ligand for 30 minutes at room temperature to generate affinity resins the binding assays. The liganded beads were blocked with excess biotin and washed with blocking buffer (SeaBlock (Pierce), 1% BSA, 0.05% Tween 20, 1 mM DTT) to remove unbound ligand and to reduce nonspecific binding.
The binding reaction was assembled by combining 16 μl of DNA-tagged kinase extract, 3.8 μl liganded affinity beads, and 0.18 μl test compound (PBS/0.05% Tween 20/10 mM DTT/0.1% BSA/2 μg/ml sonicated salmon sperm DNA)]. Extracts were used directly in binding assays without any enzyme purification steps at a ≥10,000-fold overall stock dilution (final DNA-tagged enzyme concentration <0.1 nM). Extracts were loaded with DNA-tag and diluted into the binding reaction in a two step process. First extracts were diluted 1:100 in 1× binding buffer (PBS/0.05% Tween 20/10 mM DTT/0.1% BSA/2 μg/ml sonicated salmon sperm DNA) containing 10 nM DNA-tag. This dilution was allowed to equilibrate at room temperature for 15 minutes and then subsequently diluted 1:100 in 1× binding buffer. Test compounds were prepared as 111× stocks in 100% DMSO. Kds were determined using an 11-point 3-fold compound dilution series with three DMSO control points. All compounds for Kd measurements are distributed by acoustic transfer (non-contact dispensing) in 100% DMSO. The compounds were then diluted directly into the assays such that the final concentration of DMSO was 0.9%. All reactions performed in polypropylene 384-well plates. Each was a final volume of 0.02 mL. Assays were incubated with shaking for 1 hour at room temperature. Then the beads were pelleted and washed with wash buffer (1×PBS, 0.05% Tween 20) to remove displaced kinase and test compound. The washed based were re-suspended in elution buffer (1×PBS, 0.05% Tween 20, 0.5 μM non-biotinylated affinity ligand) and incubated at room temperature with shaking for 30 minutes. The kinase concentration in the eluates was measured by qPCR. qPCR reactions were assembled by adding 2.5 μL of kinase eluate to 7.5 μL of qPCR master mix containing 0.15 μM amplicon primers and 0.15 μM amplicon probe. The qPCR protocol consisted of a 10 minute hot start at 95° C., followed by 35 cycles of 95° C. for 15 seconds, 60° C. for 1 minute.
Test compounds were prepared as 111× stocks in 100% DMSO. Kds were determined using an 11-point 3-fold compound dilution series with three DMSO control points. All compounds for Kd measurements are distributed by acoustic transfer (non-contact dispensing) in 100% DMSO. The compounds were then diluted directly into the assays such that the final concentration of DMSO was 0.9%. The Kds were determined using a compound top concentration of 30,000 nM. Kd measurements were performed in duplicate.
Binding constants (Kds) were calculated with a standard dose-response curve using the Hill equation: […]
The Hill Slope was set to −1. […]

Chain of human TYK2 (JH2domain-pseudokinase) (P29597 556-888): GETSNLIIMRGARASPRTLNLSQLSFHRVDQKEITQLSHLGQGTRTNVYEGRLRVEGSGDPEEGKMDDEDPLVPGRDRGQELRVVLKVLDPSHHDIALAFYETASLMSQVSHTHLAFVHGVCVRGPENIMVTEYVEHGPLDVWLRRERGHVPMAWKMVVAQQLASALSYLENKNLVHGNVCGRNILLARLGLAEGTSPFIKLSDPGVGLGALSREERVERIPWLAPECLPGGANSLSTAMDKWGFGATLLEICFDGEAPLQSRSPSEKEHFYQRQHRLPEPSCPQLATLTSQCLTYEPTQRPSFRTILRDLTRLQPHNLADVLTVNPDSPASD

Row | SMILES | Kd [nM]
1 | COc1c(Nc2cc(NC(=O)C3CC3)nc3[nH]c(C(F)F)nc23)cccc1-c1nnn(C)n1 [I-14, N-(2-(difluoromethyl)-7-((2-methoxy-3-(2-methyl-2H-tetrazol-5-yl)phenyl)amino)-3H-imidazo[4,5-b]pyridin-5-yl)cyclopropanecarboxamide] | 0.1 to 0.5
2 | COc1cc(C(=O)N2CCOCC2)ccc1Nc1cc(NC(=O)C2CC2)nc2[nH]c(C(F)F)nc12 [I-15, N-(2-(difluoromethyl)-7-((2-methoxy-4-(morpholine-4-carbonyl)phenyl)amino)-3H-imidazo[4,5-b]pyridin-5-yl)cyclopropanecarboxamide] | 1 to 10
3 | COc1cc(C(=O)N2CCC2)ccc1Nc1cc(NC(=O)C2CC2)nc2[nH]c(C(F)F)nc12 [I-16, N-(7-((4-(azetidine-1-carbonyl)-2-methoxyphenyl)amino)-2-(difluoromethyl)-3H-imidazo[4,5-b]pyridin-5-yl)cyclopropanecarboxamide] | 0.5 to 1
4 | COc1c(Nc2cc(Nc3cccc(C#N)n3)nc3[nH]c(C(F)F)nc23)cccc1-c1nnn(C)n1 [I-17, 6-((2-(difluoromethyl)-7-((2-methoxy-3-(2-methyl-2H-tetrazol-5-yl)phenyl)amino)-3H-imidazo[4,5-b]pyridin-5-yl)amino)picolinonitrile] | 0.1 to 0.5
5 | COc1cc(N2CCCC2=O)ccc1Nc1cc(NC(=O)C2CC2)nc2[nH]c(C(F)F)nc12 [I-18] | 1 to 10
6 | COc1c(Cl)cccc1Nc1cc(NC(=O)C2CC2)nc2[nH]c(C(F)F)nc12 [I-19, N-(7-((3-chloro-2-methoxyphenyl)amino)-2-(difluoromethyl)-3H-imidazo[4,5-b]pyridin-5-yl)cyclopropanecarboxamide] | > 10
7 | COc1c(F)cccc1Nc1cc(NC(=O)C2CC2)nc2[nH]c(C(F)F)nc12 [I-20, N-(2-(difluoromethyl)-7-((3-fluoro-2-methoxyphenyl)amino)-3H-imidazo[4,5-b]pyridin-5-yl)cyclopropanecarboxamide] | > 10
8 | COc1c(Nc2cc(Nc3cnc(C)c(C)n3)nc3[nH]c(C(F)F)nc23)cccc1-c1nnn(C)n1 [I-21, 2-(difluoromethyl)-N5-(5,6-dimethylpyrazin-2-yl)-N7-(2-methoxy-3-(2-methyl-2H-tetrazol-5-yl)phenyl)-3H-imidazo[4,5-b]pyridine-5,7-diamine] | 0.5 to 1
9 | COc1c(Nc2cc(Nc3ccc(N4CCC4)cn3)nc3[nH]c(C(F)F)nc23)cccc1-c1nnn(C)n1 [I-22, N5-(5-(azetidin-1-yl)pyridin-2-yl)-2-(difluoromethyl)-N7-(2-methoxy-3-(2-methyl-2H-tetrazol-5-yl)phenyl)-3H-imidazo[4,5-b]pyridine-5,7-diamine] | 1 to 10
10 | COc1c(Nc2cc(Nc3ccc(N4CC(O)C4)cn3)nc3[nH]c(C(F)F)nc23)cccc1-c1nnn(C)n1 [I-23, I-(6-((2-(difluoromethyl)-7-((2-methoxy-3-(2-methyl-2H-tetrazol-5-yl)phenyl)amino)-3H-imidazo[4,5-b]pyridin-5-yl)amino)pyridin-3-yl)azetidin-3-ol] | 1 to 10
11 | COc1c(Nc2cc(Nc3cccc(C#N)n3)nc3[nH]c(C(F)F)nc23)cccc1-c1ccn(C)n1 [I-25, 6-((2-(difluoromethyl)-7-((2-methoxy-3-(1-methyl-1H-pyrazol-3-yl)phenyl)amino)-3H-imidazo[4,5-b]pyridin-5-yl)amino)picolinonitrile] | 0.1 to 0.5
12 | COc1c(Nc2cc(Nc3ccc(C)nn3)nc3[nH]c(C(F)F)nc23)cccc1-c1ccn(C)n1 [I-26, 2-(difluoromethyl)-N7-(2-methoxy-3-(1-methyl-1H-pyrazol-3-yl)phenyl)-N5-(6-methylpyridazin-3-yl)-3H-imidazo[4,5-b]pyridine-5,7-diamine] | 0.1 to 0.5
13 | COc1c(Nc2cc(Nc3cncc(C#N)n3)nc3[nH]c(C(F)F)nc23)cccc1-c1ccn(C)n1 [I-27, 6-((2-(difluoromethyl)-7-((2-methoxy-3-(1-methyl-1H-pyrazol-3-yl)phenyl)amino)-3H-imidazo[4,5-b]pyridin-5-yl)amino)pyrazine-2-carbonitrile] | 1 to 10
14 | COc1ccccc1Nc1cc(NC(=O)C2CC2)nc2[nH]c(C(F)F)nc12 [I-28, N-(2-(difluoromethyl)-7-((2-methoxyphenyl)amino)-3H-imidazo[4,5-b]pyridin-5-yl)cyclopropanecarboxamide] | > 10
15 | COc1c(C#N)cccc1Nc1cc(NC(=O)C2CC2)nc2[nH]c(C(F)F)nc12 [I-29, N-(7-((3-cyano-2-methoxyphenyl)amino)-2-(difluoromethyl)-3H-imidazo[4,5-b]pyridin-5-yl)cyclopropanecarboxamide] | > 10
16 | COc1c(Nc2cc(Nc3cncc(C#N)n3)nc3[nH]c(C(F)F)nc23)cccc1-c1nnn(C)n1 [I-30, 6-((2-(difluoromethyl)-7-((2-methoxy-3-(2-methyl-2H-tetrazol-5-yl)phenyl)amino)-3H-imidazo[4,5-b]pyridin-5-yl)amino)pyrazine-2-carbonitrile] | 1 to 10
17 | COc1c(Nc2cc(Nc3ccc(N4CCC4)cn3)nc3[nH]c(C(F)F)nc23)cccc1-c1ccn(C)n1 [I-31, N5-(5-(azetidin-1-yl)pyridin-2-yl)-2-(difluoromethyl)-N7-(2-methoxy-3-(1-methyl-1H-pyrazol-3-yl)phenyl)-3H-imidazo[4,5-b]pyridine-5,7-diamine] | 1 to 10
18 | COc1c(Nc2cc(Nc3cc(C)cc(C#N)n3)nc3[nH]c(C(F)F)nc23)cccc1-c1nnn(C)n1 [I-32, 6-((2-(difluoromethyl)-7-((2-methoxy-3-(2-methyl-2H-tetrazol-5-yl)phenyl)amino)-3H-imidazo[4,5-b]pyridin-5-yl)amino)-4-methylpicolinonitrile] | 0.5 to 1
19 | COc1c(Nc2cc(Nc3cc(C)cc(C#N)n3)nc3[nH]c(C(F)F)nc23)cccc1-c1ccn(C)n1 [I-33, 6-((2-(difluoromethyl)-7-((2-methoxy-3-(1-methyl-1H-pyrazol-3-yl)phenyl)amino)-3H-imidazo[4,5-b]pyridin-5-yl)amino)-4-methylpicolinonitrile] | 0.5 to 1
20 | COc1c(Nc2cc(NC(=O)C3CC3)nc3[nH]c(C(F)F)nc23)cccc1-c1cnn(C)c1 [I-34, N-(2-(difluoromethyl)-7-((2-methoxy-3-(1-methyl-1H-pyrazol-4-yl)phenyl)amino)-3H-imidazo[4,5-b]pyridin-5-yl)cyclopropanecarboxamide] | > 10
21 | COc1cc(C(=O)N2CCCC2)ccc1Nc1cc(NC(=O)C2CC2)nc2[nH]c(C(F)F)nc12 [I-35, N-(2-(difluoromethyl)-7-((2-methoxy-4-(pyrrolidine-1-carbonyl)phenyl)amino)-3H-imidazo[4,5-b]pyridin-5-yl)cyclopropanecarboxamide] | 1 to 10
22 | COc1c(Nc2cc(Nc3ccc(C(=O)N4CCCC4)c(C(F)(F)F)n3)nc3[nH]c(C(F)F)nc23)cccc1-c1nnn(C)n1 [I-36, (6-((2-(difluoromethyl)-7-((2-methoxy-3-(2-methyl-2H-tetrazol-5-yl)phenyl)amino)-3H-imidazo[4,5-b]pyridin-5-yl)amino)-2-(trifluoromethyl)pyridin-3-yl)(pyrrolidin-1-yl)methanone] | 0.1 to 0.5
23 | COc1c(Nc2cc(Nc3ccc(N4CCCC4=O)c(C#N)n3)nc3[nH]c(C(F)F)nc23)cccc1-c1nnn(C)n1 [I-37, 6-((2-(difluoromethyl)-7-((2-methoxy-3-(2-methyl-2H-tetrazol-5-yl)phenyl)amino)-3H-imidazo[4,5-b]pyridin-5-yl)amino)-3-(2-oxopyrrolidin-1-yl)picolinonitrile] | 0.1 to 0.5
